This experiment addresses T1, MerTK (Homo sapiens, UniProt Q12866).
T1 construct: Seed HUVECs (10K cells/well) in EBM-2 complete media; host or cells: HUVEC (primary human umbilical vein endothelial cells)
T1 sequence (Q12866 21-999): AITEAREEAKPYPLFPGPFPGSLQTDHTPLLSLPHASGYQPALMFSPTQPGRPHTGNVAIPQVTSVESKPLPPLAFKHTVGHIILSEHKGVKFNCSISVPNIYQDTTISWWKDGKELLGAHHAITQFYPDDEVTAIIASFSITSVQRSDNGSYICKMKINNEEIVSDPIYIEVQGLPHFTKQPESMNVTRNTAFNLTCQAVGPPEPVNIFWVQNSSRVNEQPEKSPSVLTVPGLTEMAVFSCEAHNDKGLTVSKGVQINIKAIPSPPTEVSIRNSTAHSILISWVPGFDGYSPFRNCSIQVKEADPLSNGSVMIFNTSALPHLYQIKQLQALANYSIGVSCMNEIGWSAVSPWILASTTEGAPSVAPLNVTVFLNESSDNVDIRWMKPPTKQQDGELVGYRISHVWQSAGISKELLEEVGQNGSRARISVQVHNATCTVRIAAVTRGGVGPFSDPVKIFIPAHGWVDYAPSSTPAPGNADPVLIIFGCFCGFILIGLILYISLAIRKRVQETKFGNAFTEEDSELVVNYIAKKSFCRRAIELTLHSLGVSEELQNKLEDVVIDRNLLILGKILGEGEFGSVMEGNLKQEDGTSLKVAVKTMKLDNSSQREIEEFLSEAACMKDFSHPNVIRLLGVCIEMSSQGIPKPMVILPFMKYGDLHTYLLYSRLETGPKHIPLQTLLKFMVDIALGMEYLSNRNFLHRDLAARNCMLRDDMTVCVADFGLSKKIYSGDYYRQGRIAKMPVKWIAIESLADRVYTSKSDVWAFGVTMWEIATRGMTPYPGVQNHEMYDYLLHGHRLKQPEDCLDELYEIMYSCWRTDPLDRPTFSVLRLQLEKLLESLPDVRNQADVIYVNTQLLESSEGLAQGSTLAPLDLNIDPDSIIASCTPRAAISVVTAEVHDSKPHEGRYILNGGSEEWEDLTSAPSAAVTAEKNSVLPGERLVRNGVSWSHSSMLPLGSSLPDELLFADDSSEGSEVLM
In words: PAKT HTRF-HUVEC assay (pAkt Ser473 HTRF after anti-human MerTK-XL stimulation). The conditions noted are these: HUVEC cells, 1 hour compound, stimulated with anti-human MerTK-XL 1 ug/mL for 10 minutes, read-out: inhibition of MerTK. Type of experiment: cell-based. In a few lines: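 Akt Ser473 phosphorylation measured by HTRF in lysates of serum-starved HUVECs. Cells received compound for 1 h at 37° C before a 10-min challenge with antibody-cross-linked anti-MerTK (1 ug/mL final); EC50 derived by curve fit.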
In the case of `CCCCNc1ncc2c3ccc(CN4CCN(C)CC4)cc3c(=O)n([C@H]3CC[C@H](N(C)C)C3)c2n1` [Compound 236, 3-(butylamino)-5-((1S,3S)-3-(dimethylamino)cyclopentyl)-8-((4-methylpiperazin-1-yl)methyl)pyrimido[4,5-c]isoquinolin-6(5H)-one], the EC50 is 130 nM. Take `CCCCNc1ncc2c3ccc(CN4CCN(C)CC4)cc3c(=O)n([C@H]3CC[C@H](NCC(N)=O)C3)c2n1` [Compound 237, 2-(((1S,3S)-3-(3-(butylamino)-8-((4-methylpiperazin-1-yl)methyl)-6-oxopyrimido[4,5-c]isoquinolin-5(6H)-yl)cyclopentyl)amino)acetamide]: the EC50 worked out at 220 nM. With `CCCCNc1ncc2c3ccc(CN4CCN(C)CC4)cc3c(=O)n([C@H]3CC[C@H](NCCO)C3)c2n1` [Compound 238, 3-(butylamino)-5-((1S,3S)-3-((2-hydroxyethyl)amino)cyclopentyl)-8-((4-methylpiperazin-1-yl)methyl)pyrimido[4,5-c]isoquinolin-6(5H)-one] the figure was 160 nM. With `CCCCNc1ncc2c3ccc(CN4CCN(C)CC4)cc3c(=O)n([C@H]3CC[C@H](NC(=N)N)C3)c2n1` [Compound 239, 1-((1S,3 S)-3-(3-(butylamino)-8-((4-methylpiperazin-1-yl)methyl)-6-oxopyrimido[4,5-c]isoquinolin-5(6H)-yl)cyclopentyl)guanidine] the figure was 947 nM.

Source of the values: US11110082B2, “Tyrosine kinase inhibitors” (Rigel Pharmaceuticals, Inc., priority 2016, dated 2021).
